Laboratory results from US20020010166A1, “CRYSTALLINE PROGESTAGENS” (priority 1997, published 2002).
“And” between values parts separate entries of the source, which are not always exact repeats. Identical values can stand only once.

Tests used:
[1] = Differential Scanning Calorimetry (DSC) of crystalline forms of Org 30659; format: physicochemical; details: determined by DSC, heating rate 5.0° C./min, from the melting peak
Experimental: Differential Scanning Calorimetry (DSC)
DSC curves were recorded using a Seiko DSC-120 instrument. Closed aluminium pans having a volume of 5 μl were used in combination with a nitrogen flow of 50 ml/min. The heating rate was 5.0° C./min.
DSC curves of crystalline forms of Org 30659. The horizontal axis represents the temperature in ° C. (heating), the vertical axis represents heat in μW or mW.

[2] = Relative stability of crystalline forms on heating / in boiling water; format: physicochemical; details: at temperatures below 155° C., including subjection to boiling water

Row | SMILES | thermodynamic stability, enthalpy ΔH [1] | relative stability of the crystalline form [2] | thermodynamic stability, enthalpy ΔH ([1]; listed as form C) [mJ/mg]
1 | C#C[C@]1(O)C=C[C@H]2[C@@H]3CCC4=CC(=O)CC[C@@H]4[C@H]3C(=C)C[C@@]21C [form (B), (17α)-17-hydroxy-11-methylene-19-norpregna-4,15-diene-20-yn-3-one] | 70 mJ/mg and 70.4 mJ/mg | – | –
2 | C#C[C@]1(O)C=C[C@H]2[C@@H]3CCC4=CC(=O)CC[C@@H]4[C@H]3C(=C)C[C@@]21C [form (A), (17α)-17-hydroxy-11-methylene-19-norpregna-4,15-diene-20-yn-3-one] | 84.3 mJ/mg and 84 mJ/mg | the most stable one | –
3 | C#C[C@]1(O)C=C[C@H]2[C@@H]3CCC4=CC(=O)CC[C@@H]4[C@H]3C(=C)C[C@@]21C [form (C), (17α)-17-hydroxy-11-methylene-19-norpregna-4,15-diene-20-yn-3-one] | 71.9 mJ/mg | – | 71.9
